# In ChEMBL document CHEMBL4732189, “A facile synthesis of diaryl pyrroles led to the discovery of potent colchicine site antimitotic agents” (Eur J Med Chem, 2021):
# Activity calls are given as the source filed them. The rule behind the calls is not given here.
# Legend:
# CCRF-CEM = test: Antiproliferative activity against human CCRF-CEM cells assessed as reduction in cell viability after 72 hrs by MTT assay; type: functional, cell-based
# HL-60 = test: Antiproliferative activity against human HL-60 cells assessed as reduction in cell viability after 72 hrs by MTT assay; type: functional, cell-based; conditions: HL-60, 72 h
# SEM cells = test: Antiproliferative activity against human SEM cells assessed as reduction in cell viability after 72 hrs by MTT assay; type: functional, cell-based
# [1] = Inhibition of bovine brain tubulin polymerization incubated for 15 mins followed by GTP addition and measured after 20 mins by spectrophotometric method; type: tissue-based, Bos taurus
# Bos taurus [2] = species on record: Bos taurus; test: Displacement of [3H]colchicine from bovine brain tubulin at 5 uM by DEAE-cellulose filter method relative to control; type: tissue-based
# Bos taurus [3] = species on record: Bos taurus; test: Displacement of [3H]colchicine from bovine brain tubulin at 0.5 uM by DEAE-cellulose filter method relative to control; type: tissue-based
# HeLa [4] = test: cells; conditions: Homo sapiens, 72 h
# Description: Antiproliferative activity against human HeLa cells assessed as reduction in cell viability after 72 hrs by MTT assay
# A549 = test: cells; conditions: Homo sapiens, A549, 72 h
# Description: Antiproliferative activity against human A549 cells assessed as reduction in cell viability after 72 hrs by MTT assay
# HT-29 [5] = test: cells; conditions: Homo sapiens, HT-29, 72 h
# PBL [6] = test: Cytotoxicity against human PBL cells assessed reduction in cell viability after 72 hrs by MTT assay; type: cell-based
# PBL [7] = test: Cytotoxicity against PHA-induced human PBL cells assessed reduction in cell viability after 72 hrs by MTT assay; type: cell-based
# HeLa [8] = test: Induction of cell cycle arrest in human HeLa cells assessed as increase in accumulation at G2/M phase after 24 hrs by propidium iodide staining based flow cytometric analysis; type: functional; conditions: dose 1-100 nM
# HT-29 [9] = test: Induction of cell cycle arrest in human HT-29 cells assessed as increase in accumulation at G2/M phase after 24 hrs by propidium iodide staining based flow cytometric analysis; type: functional; conditions: dose 1-100 nM
# HeLa [10] = test: Induction of cell cycle arrest in human HeLa cells assessed as decrease in accumulation at G1 phase at 1 to 100 nM after 24 hrs by propidium iodide staining based flow cytometric analysis; type: functional; conditions: dose 1-100 nM
# HT-29 [11] = test: Induction of cell cycle arrest in human HT-29 cells assessed as decrease in accumulation at G1 phase at 1 to 100 nM after 24 hrs by propidium iodide staining based flow cytometric analysis; type: functional; conditions: dose 1-100 nM
# HeLa [12] = test: Induction of cell cycle arrest in human HeLa cells assessed as decrease in accumulation at S phase at 1 to 100 nM after 24 hrs by propidium iodide staining based flow cytometric analysis; type: functional; conditions: dose 1-100 nM
# HT-29 [13] = test: Induction of cell cycle arrest in human HT-29 cells assessed as decrease in accumulation at S phase at 1 to 100 nM after 24 hrs by propidium iodide staining based flow cytometric analysis; type: functional; conditions: dose 1-100 nM
# HeLa [14] = test: Induction of cell cycle arrest in human HeLa cells assessed as increase in cyclin B1 protein expression at 50 nM after 24 to 48 hrs by Western blot analysis; type: functional, cell-based; conditions: time 24-48 hrs
# HeLa [15] = test: Induction of cell cycle arrest in human HeLa cells assessed as decrease in cdc25c protein expression at 50 nM after 24 to 48 hrs by Western blot analysis; type: functional, cell-based; conditions: time 24-48 hrs
# [16] = target: Cyclin-dependent kinase 1 (Homo sapiens) (UniProt P06493); test: Inhibition of cdc2 phosphorylation at Y15 residues in human HeLa cells at 25 to 50 nM after 24 to 48 hrs by Western blot analysis; type: cell-based; conditions: dose 25-50 nM, time 24-48 hrs
# HeLa [17] = test: Induction of apoptosis in human HeLa cells at 50 nM after 24 to 48 hrs by annexinV-FITC/propidium iodide staining based flow cytometric analysis; type: functional, cell-based; conditions: time 24-48 hrs
# HeLa [18] = test: Induction of ROS generation in human HeLa cells assessed as increase in DCF fluorescence at 50 nM after 24 to 48 hrs by H2-DCFDA staining based flow cytometric analysis; type: functional, cell-based; conditions: time 24-48 hrs
# HeLa [19] = test: Induction of apoptosis in human HeLa cells assessed as increase in cleaved PARP level at 25 nM after 24 hrs by Western blot analysis; type: functional, cell-based
# HeLa [20] = test: Induction of apoptosis in human HeLa cells assessed as decrease in cleaved Bcl-2 protein expression at 50 nM after 24 to 48 hrs by Western blot analysis; type: functional, cell-based; conditions: time 24-48 hrs
# HeLa [21] = test: Induction of apoptosis in human HeLa cells assessed as decrease in cleaved Mcl-1 protein expression at 50 nM after 24 to 48 hrs by Western blot analysis; type: functional, cell-based; conditions: time 24-48 hrs
# HeLa [22] = test: Induction of apoptosis in human HeLa cells assessed as decrease in cleaved XIAP protein expression at 50 nM after 24 to 48 hrs by Western blot analysis; type: functional, cell-based; conditions: time 24-48 hrs
# EO771 [23] = test: Antitumour activity against mouse EO771 cells allografted in C57BL/6 mouse assessed as reduction in tumor volume at 5 mg/kg, ip; type: functional, organism-based
# EO771 [24] = test: Antitumour activity against mouse EO771 cells allografted in ip dosed C57BL/6 mouse assessed as reduction in tumor mass; type: functional, organism-based; conditions: dose lower 5.0 mg/kg, dose upper […]
# [25] = Toxicity in C57BL/6 mouse allografted with mouse EO771 cells assessed as reduction in body weight at 15 mg/kg, ip; type: organism-based; conditions: in vivo
# SGC-7901 = test: Antiproliferative activity against human SGC-7901 cells assessed as reduction in cell viability after 72 hrs by MTT assay; type: functional, cell-based; conditions: SGC-7901, 72 h
# HT-1080 = test: Antiproliferative activity against human […] cells assessed as reduction in cell viability after 72 hrs by MTT assay; type: functional, cell-based; conditions: HT-1080, 72 h
# KB = test: Antiproliferative activity against human KB cells assessed as reduction in cell viability after 72 hrs by MTT assay; type: functional, cell-based
# Tubulin = test: Inhibition of tubulin (unknown origin) polymerization incubated for 90 mins by fluorescence-based assay; type: protein-complex assay, Homo sapiens
# Sequence of Cyclin-dependent kinase 1 (Homo sapiens) (P06493 whole entry, looked up): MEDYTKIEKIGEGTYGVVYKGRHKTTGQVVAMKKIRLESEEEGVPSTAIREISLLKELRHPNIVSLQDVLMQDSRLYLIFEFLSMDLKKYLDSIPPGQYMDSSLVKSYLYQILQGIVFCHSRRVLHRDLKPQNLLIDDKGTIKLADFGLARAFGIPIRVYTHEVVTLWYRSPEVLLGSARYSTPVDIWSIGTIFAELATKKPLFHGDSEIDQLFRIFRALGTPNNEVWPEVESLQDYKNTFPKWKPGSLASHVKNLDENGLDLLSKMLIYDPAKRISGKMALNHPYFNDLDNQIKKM
IC50 (CCRF-CEM),IC50 (HL-60),IC50 [1],inhibition (Bos taurus [2]),inhibition (Bos taurus [3]),IC50 (HeLa [4]),IC50 (A549),IC50 (HT-29 [5]),SMILES,IC50 (SEM cells),further results
1310 nM,400 nM,1600 nM,74%,,410 nM,3100 nM,650 nM,COc1cc(-n2cccc2-c2ccc3ccccc3c2)cc(OC)c1OC,150 nM,
1410 nM,400 nM,1600 nM,70%,,430 nM,5520 nM,840 nM,COc1cc(-c2cccn2-c2ccc3ccccc3c2)cc(OC)c1OC,190 nM,
2410 nM,630 nM,2400 nM,55%,,3310 nM,> 10000 nM,5220 nM,COc1cc(-c2cccn2-c2ccc(C)cc2)cc(OC)c1OC,140 nM,

# Continued, compound first:
SMILES,IC50 (CCRF-CEM),IC50 (HL-60),IC50 [1],inhibition (Bos taurus [2]),inhibition (Bos taurus [3]),IC50 (HeLa [4]),IC50 (A549),IC50 (HT-29 [5]),IC50 (SEM cells),further results
CCOc1ccc(-c2c[nH]cc2-c2cc(OC)c(OC)c(OC)c2)cc1,16.6 nM,149 nM,820 nM,92%,80%,37 nM,81 nM,42 nM,2.8 nM,
CCOc1ccc(-c2c[nH]cc2-c2cc(OC)c(OC)c(OC)c2)cc1F,7.5 nM,168 nM,660 nM,93%,83%,26 nM,28 nM,28 nM,1.7 nM,IC50 (PBL [6]): > 10000 nM; IC50 (PBL [7]): > 10000 nM; Activity (HeLa [8]): Dose-dependent effect; Activity (HT-29 [9]): Dose-dependent effect; Activity (HeLa [10]): Active; Activity (HT-29 [11]): Active; Activity (HeLa [12]): Active; Activity (HT-29 [13]): Active; Activity (HeLa [14]): Active; Activity (HeLa [15]): Active; inhibition [16]: Active; Activity (HeLa [17]): Active; Activity (HeLa [18]): Active; Activity (HeLa [19]): Active; Activity (HeLa [20]): Active; Activity (HeLa [21]): Active; Activity (HeLa [22]): Active; Activity (EO771 [23]): Dose-dependent effect; Activity (EO771 [24]): Dose-dependent effect; Activity [25]: Non-Toxic
COc1ccc(-n2cccc2-c2cc(OC)c(OC)c(OC)c2)cc1N,,,,,,,,,,IC50 (SGC-7901): 390 nM; IC50 (HT-1080): 70 nM; IC50 (KB): 45 nM; IC50 (Tubulin): 10000 nM
CCOc1ccc(-c2cccn2-c2cc(OC)c(OC)c(OC)c2)cc1Cl,2920 nM,390 nM,1300 nM,68%,,350 nM,8400 nM,730 nM,100 nM,
CCOc1ccc(-c2c[nH]cc2-c2cc(OC)c(OC)c(OC)c2)cc1Cl,153 nM,144 nM,710 nM,90%,68%,37 nM,79 nM,64 nM,39 nM,
